Data as given in US7102009B2, “Substituted amine derivatives and methods of use” (Amgen Inc., priority 2001, dated 2006).

Tested on: Human Umbilical Vein Endothelial cells (VEGF-stimulated HUVEC proliferation)
Experiment: HUVEC Proliferation Assay (VEGF-stimulated)
Assay type: cell-based
Details: VEGF 50 ng/mL, 72 h incubation, CyQuant readout, read-out: inhibited VEGF-stimulated HUVEC proliferation at a level below (IC50)
Method: Human Umbilical Vein Endothelial cells are purchased from Clonetics, Inc., as cryopreserved cells harvested from a pool of donors. These cells, at passage 1, are thawed and expanded in EBM-2 complete medium, until passage 2 or 3. The cells are trypsinized, washed in DMEM+10% FBS+antibiotics, and spun at 1000 rpm for 10 min. Prior to centrifugation of the cells, a small amount is collected for a cell count. After centrifugation, the medium is discarded, and the cells are resuspended in the appropriate volume of DMEM+10% FBS+antibiotics to achieve a concentration of 3×10^5 cells/mL. Another cell count is performed to confirm the cell concentration. The cells are diluted to 3×10^4 cells/mL in DMEM+10% FBS+antibiotics, and 100 μL of cells are added to a 96-well plate. The cells are incubated at 37° C. for 22 h.
Prior to the completion of the incubation period, compound dilutions are prepared. Five-point, five-fold serial dilutions are prepared in DMSO, at concentrations 400-fold greater than the final concentrations desired. 2.5 μL of each compound dilution are diluted further in a total of 1 mL DMEM+10% FBS+antibiotics (400× dilution). Medium containing 0.25% DMSO is also prepared for the 0 μM compound sample. At the 22-hour timepoint, the medium is removed from the cells, and 100 μL of each compound dilution is added. The cells are incubated at 37° C. for 2-3 h.
During the compound pre-incubation period, the growth factors are diluted to the appropriate concentrations. Solutions of DMEM+10% FBS+antibiotics, containing either VEGF or bFGF at the following concentrations: 50, 10, 2, 0.4, 0.08, and 0 ng/mL are prepared. For the compound-treated cells, solutions of VEGF at 550 ng/mL or bFGF at 220 ng/mL for 50 ng/mL or 20 ng/mL final concentrations, respectively, are prepared since 10 μL of each will be added to the cells (110 μL final volume). At the appropriate time after adding the compounds, the growth factors are added. VEGF is added to one set of plates, while bFGF is added to another set of plates. For the growth factor control curves, the media on wells B4-G6 of plates 1 and 2 are replaced with media containing VEGF or bFGF at the varying concentrations (50-0 ng/mL). The cells are incubated at 37° C. for an additional 72 h.
At the completion of the 72 h incubation period, the medium is removed, and the cells are washed twice with PBS. After the second wash with PBS, the plates are tapped gently to remove excess PBS, and the cells are placed at −70° C. for at least 30 min. The cells are thawed and analyzed using the CyQuant fluorescent dye (Molecular Probes C-7026), following the manufacturer's recommendations. The plates are read on a Victor/Wallac 1420 workstation at 485 nm/530 nm (excitation/emission). Raw data are collected and analyzed using a 4-parameter fit equation in XLFit. IC50 values are then determined.

Row | SMILES | IC50 [nM]
1 | COc1ccc(NC(=O)c2cccnc2Nc2ccc3cn[nH]c3c2)cc1OCCN(C)C [Example 37, N-{3-[2-(Dimethylamino)ethoxy]-4-methoxyphenyl)[2-(1H-indazol-6-ylamino)(3-pyridyl)]carboxamide] | < 50
2 | CC(C)c1cccc(NC(=O)c2cccnc2Nc2ccc3cn[nH]c3c2)c1 [Example 6, [2-(1H-Indazol-6-ylamino)(3-pyridyl)]-N-[3-(methylethyl)phenyl]carboxamide] | < 50
3 | CN(C)CC(=O)N1CC(C)(C)c2ccc(NC(=O)c3cccnc3Nc3ccc4cn[nH]c4c3)cc21 [Example 107, N-[1-(2-Dimethylamino-acetyl)-3,3-dimethyl-2,3-dihydro-1H-indol-6-yl]-2-(1H-indazol-6-ylamino)-nicotinamide] | < 50
4 | O=C(Nc1cc(CCCN2CCOCC2)cc(C(F)(F)F)c1)c1cccnc1Nc1ccc2cn[nH]c2c1 [Example 70, 2-(1H-Indazol-6-ylamino)-N-[3-(3-morpholin-4-yl-propyl)-5-trifluoromethyl-phenyl]-nicotinamide] | < 50
5 | CC(C)(C)c1ccc(NC(=O)c2cccnc2Nc2ccc3cn[nH]c3c2)cc1CCCN1CCCCC1 [Example 54, N-[4-(tert-Butyl)-3-(3-piperidylpropyl)phenyl][2-(1H-indazol-6-ylamino)(3-pyridyl)]carboxamide] | < 50
6 | CN1CCC(C(C)(C)c2ccc(NC(=O)c3cccnc3Nc3ccc4cn[nH]c4c3)cc2)CC1 [Example 88, 2-(1H-Indazol-6-ylamino)-N-{4-[1-methyl-1-(1-methyl-piperidin-4-yl)-ethyl]-phenyl}-nicotinamide] | < 50
7 | CN1CCC(COc2cc(NC(=O)c3cccnc3Nc3ccc4cn[nH]c4c3)ccc2C(F)(F)C(F)(F)F)CC1 [Example 78, 2-(1H-Indazol-6-ylamino)-N-[3-(1-methyl-piperidin-4-ylmethoxy)-4-pentafluoroethyl-phenyl]-nicotinamide] | < 50
8 | CN1CCC(CN2CC(C)(C)c3ccc(NC(=O)c4cccnc4Nc4ccc5cn[nH]c5c4)cc32)CC1 [Example 42, N-[3,3-Dimethyl-1-(1-methyl-piperidin-4-ylmethyl)-2,3-dihydro-1H-indol-6-yl]-2-(1H-indazol-6-ylamino)-nicotinamide] | < 50
9 | CC(=O)N1Cc2cc(NC(=O)c3cccnc3Nc3ccc4cn[nH]c4c3)ccc2C(C)(C)C1 [Example 94, N-(2-Acetyl-4,4-dimethyl-1,2,3,4-tetrahydro-isoquinolin-7-yl)-2-(1H-indazol-6-ylamino)-nicotinamide] | < 50
10 | O=C(Nc1cccc(C(F)(F)F)c1)c1cccnc1Nc1ccc2cn[nH]c2c1 [Example 9, [2-(1H-Indazol-6-ylamino)(3-pyridyl)]-N-[3-(trifluoromethyl)phenyl]carboxamide] | < 50
11 | CC1(C)CN(C(=O)[C@@H]2CCCN2)c2cc(NC(=O)c3cccnc3Nc3ccc4cn[nH]c4c3)ccc21 [Example 631, N-[3,3-Dimethyl-1-(pyrrolidine-2-carbonyl)-2,3-dihydro-1H-indol-6-yl]-2-(1H-indazol-6-ylamino)-nicotinamide] | < 50
12 | O=C(Nc1ccc(Oc2ccccc2)cc1)c1cccnc1Nc1ccc2cn[nH]c2c1 [Example 43, 2-(1H-Indazol-6-ylamino)-N-(4-phenoxy-phenyl)-nicotinamide] | < 50
13 | CN(C)CCOc1n[nH]c2cc(Nc3ncccc3C(=O)Nc3ccc(C(C)(C)C)cc3)ccc12 [Example 40, [2-({3-[2-(Dimethylamino)ethoxy](1H-indazol-6-yl)}amino)(3-pyridyl)]-N-[4-(tert-butyl)phenyl]carboxamide] | < 50
14 | CC1(C)CN(C2CCNCC2)c2cc(NC(=O)c3cccnc3Nc3ccc4cn[nH]c4c3)ccc21 [Example 100, N-(3,3-Dimethyl-1-piperidin-4-yl-2,3-dihydro-1H-indol-6-yl)-2-(1H-indazol-6-ylamino)-nicotinamide] | < 50
15 | CC(C)(CCN1CCOCC1)c1ccc(NC(=O)c2cccnc2Nc2ccc3cn[nH]c3c2)cc1 [Example 63, N-[4-(1,1-Dimethyl-3-morpholin-4-ylpropyl)phenyl][2-(1H-indazol-6-ylamino)(3-pyridyl)]carboxamide] | < 50
16 | CC(C)N1CCN(c2cc(NC(=O)c3cccnc3Nc3ccc4cn[nH]c4c3)ccc2C(C)(C)C)CC1 [Example 103, N-[4-tert-Butyl-3-(4-isopropyl-piperazin-1-yl)-phenyl]-2-(1H-indazol-6-ylamino)-nicotinamide] | < 50
17 | CN1CC(C)(C)Oc2ccc(NC(=O)c3cccnc3Nc3ccc4cn[nH]c4c3)cc21 [Example 92, 2-(1H-Indazol-6-ylamino)-N-(2,2,4-trimethyl-3,4-dihydro-2H-benzo[1,4]oxazin-6-yl)-nicotinamide] | < 50
18 | COc1ccc(NC(=O)c2cccnc2Nc2ccc3cn[nH]c3c2)cc1OC1CCN(C)CC1 [Example 38, [2-(1H-Indazol-6-ylamino)(3-pyridyl)]-N-[4-methoxy-3-(1-methyl(4-piperidyl)oxy)phenyl]carboxamide] | < 50
19 | O=C(Nc1ccc(-c2ccccc2)cc1)c1cccnc1Nc1ccc2cn[nH]c2c1 [Example 45, [2-(1H-Indazol-6-ylamino)(3-pyridyl)]-N-(4-phenylphenyl)carboxamide] | < 50
20 | CC(=O)N1CC(C)(C)c2ccc(NC(=O)c3cccnc3Nc3ccc4cn[nH]c4c3)cc21 [Example 87, N-(1-Acetyl-3,3-dimethyl-2,3-dihydro-1H-indol-6-yl)-2-(1H-indazol-6-ylamino)-nicotinamide] | < 50
21 | CC(=O)N1CCC[C@@H]1COc1cc(NC(=O)c2cccnc2Nc2ccc3cn[nH]c3c2)cc(C(F)(F)F)c1 [Example 580, N-(3-((((2R)-1-Acetyl-2-pyrrolidinyl)methyl)oxy)-5-(trifluoromethyl)phenyl)-2-(1H-indazol-6-ylamino)-3-pyridinecarboxamide] | < 50
22 | CC(C)(C)c1ccc(NC(=O)c2cccnc2Nc2ccc3cn[nH]c3c2)cc1/C=C/CCN1CCCC1 [Example 55, N-[3-((1E)-4-Pyrrolidinylbut-1-enyl)-4-(tert-butyl)phenyl][2-(1H-indazol-6-ylamino)(3-pyridyl)]carboxamide] | < 50
23 | O=C(Nc1ccc(C(F)(F)F)c(OCCN2CCCC2)c1)c1cccnc1Nc1ccc2cn[nH]c2c1 [Example 86, 2-(1H-Indazol-6-ylamino)-N-[3-(2-pyrrolidin-1-yl-ethoxy)-4-trifluoromethyl-phenyl]-nicotinamide] | < 50
24 | CN1CCC(Cc2cc(NC(=O)c3cccnc3Nc3ccc4cn[nH]c4c3)cc(C(F)(F)F)c2)CC1 [Example 72, 2-(1H-Indazol-6-ylamino)-N-[3-(1-methyl-piperidin-4-ylmethyl)-5-trifluoromethyl-phenyl]-nicotinamide] | < 50
25 | CC(C)(C)c1ccc(NC(=O)c2cccnc2Nc2ccc3cn[nH]c3c2)cc1CCCN1CCOCC1 [Example 57, N-[4-(tert-Butyl)-3-(3-morpholin-4-ylpropyl)phenyl][2-(1H-indazol-6-ylamino)(3-pyridyl)]carboxamide] | < 50
26 | CN1CC=C(c2cc(NC(=O)c3cccnc3Nc3ccc4cn[nH]c4c3)cc(C(F)(F)F)c2)CC1 [Example 121, 2-(1H-Indazol-6-ylamino)-N-[3-(1-methyl-1,2,3,6-tetrahydro-pyridin-4-yl)-5-trifluoromethyl-phenyl]-nicotinamide] | < 50
27 | CC1(C)CNCc2cc(NC(=O)c3cccnc3Nc3ccc4[nH]c(=O)[nH]c4c3)ccc21 [Example 594, N-(4,4-Dimethyl-1,2,3,4-tetrahydro-isoquinolin-7-yl)-2-(2-oxo-2,3-dihydro-1H-benzoimidazol-5-ylamino)-nicotinamide] | < 50
28 | CC(C)(C)c1ccc(NC(=O)c2cccnc2Nc2ccc3cn[nH]c3c2)cc1N1CCNCC1 [Example 98, N-(4-tert-Butyl-3-piperazin-1-yl-phenyl)-2-(1H-indazol-6-ylamino)-nicotinamide] | < 50
29 | CC1(C)CNC(=O)c2cc(NC(=O)c3cccnc3Nc3ccc4cn[nH]c4c3)ccc21 [Example 105, N-(4,4-Dimethyl-1-oxo-1,2,3,4-tetrahydro-isoquinolin-7-yl)-2-(1H-indazol-6-ylamino)-nicotinamide] | < 50
